{
  "source": "patent US7566697B2",
  "about": "“Carboxy protection strategies for acidic C-terminal amino acids in chemical ligation of oligopeptides” (Amylin Pharmaceuticals, Inc., priority 2002, dated 2009)",
  "key": {"[1]": {"details": "buffer, pH 6.5", "description": "The C-terminal unprotected peptide (1.5 equivalent) and the N-terminal peptide (1 equivalent) were solubilized in freshly degassed 6M guanidinium hydrochloride, 0.2 M sodium phosphate, pH 7.5 buffer at a concentration of 2.5 mM each. After addition of 1% thiophenol and 1% benzyl mercaptan the pH was adjusted to 6.5 (or different thiols concentration or pH as reported in the text). Aliquots of this solution were treated with equal volumes of BME for 5 minutes and then with 10% TCEP for 10 minutes to completely hydrolyse any thiol adduct before HPLC analysis. Ligation reaction analysis was conducted using a gradient starting from 10% of B with a gradient slope of 1.66% of B per minute. Base line resolution of the different isomerization product was achieved using a gradient starting at 20% of B and with an increase of 0.33% B."}, "SV8 protease": {"molecular_target": "SV8 protease (Staphylococcus aureus, UniProt P0C1U8)", "sequence (P0C1U8 69-336)": "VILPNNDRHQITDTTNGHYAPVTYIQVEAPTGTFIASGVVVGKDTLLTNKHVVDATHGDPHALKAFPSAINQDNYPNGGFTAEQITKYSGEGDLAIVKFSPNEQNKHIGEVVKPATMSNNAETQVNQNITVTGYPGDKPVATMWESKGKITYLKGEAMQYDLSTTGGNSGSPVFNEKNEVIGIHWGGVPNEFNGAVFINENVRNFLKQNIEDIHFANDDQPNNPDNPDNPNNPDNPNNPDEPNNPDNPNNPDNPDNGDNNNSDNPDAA", "details": "1 unit/20 μg, 24 hours at 37° C.", "description": "Peptides were digested using the enzyme SV8 protease. The peptides, solubilized to a final 5 mM concentration in 0.1 M NH4HCO3 and 0.3% BME, were digested by adding the enzyme solution (250 unit/ml), keeping the enzyme/peptide ratio of 1 unit/20 μg. The reaction was stopped after 24 hours at 37° C. by treatment with equal volumes of 10% TCEP, and extent of digestion assayed by RP-HPLC. Digested fragments were characterized by ESI-MS."}},
  "note": "Residues, ends and D or L forms follow the SMILES beside them. Primed or numbered codes have the meaning given here. No end group written: not given here. *: point of attachment. diMeOPac = (2',4'-dimethoxy)phenacyl ester on the Asp side chain, COc1ccc(C(=O)C*)c(OC)c1; Fmoc = O=C(OCC1c2ccccc2-c2ccccc21)*; X1 = CC(O*)C(=O)c1ccccc1; OPac′ = phenacyl ester; X2 = ClC(Cl)(Cl)CO*",
  "data": [
    {"compound": "CC(=O)N[C@@H](CC(=O)OC(C)C(=O)c1ccccc1)C(=O)N[C@@H](Cc1ccc(O)cc1)C(=O)N[C@@H](C)C(=O)N[C@@H](CCCCN)C(=O)N[C@@H](Cc1ccc(O)cc1)C(=O)N[C@@H](C)C(=O)N[C@@H](CCCCN)C(=O)N[C@@H](CC(C)C)C(=O)O", "note": "(some centres unmarked) [OMop, Ac-D(OMop)YAKYAKL] (Ac-D(X1)YAKYAKL-OH)", "values": [
      {"measurement": "Hydrolysis t1/2", "setting": "[1]", "value": 9.9, "unit": "h"},
      {"measurement": "half-life in the ligation condition", "setting": "[1]", "value": 500, "unit": "h"}
    ]},
    {"compound": "CC(C)C[C@H](NC(=O)[C@H](CCCCN)NC(=O)[C@H](C)NC(=O)[C@H](Cc1ccc(O)cc1)NC(=O)[C@H](CCCCN)NC(=O)[C@H](C)NC(=O)[C@H](Cc1ccc(O)cc1)NC(=O)[C@H](CC(=O)OCC(Cl)(Cl)Cl)NC(=O)OCC1c2ccccc2-c2ccccc21)C(=O)O", "note": "[Troc, Fmoc-D(Troc)YAKYAKL] (Fmoc-D(X2)YAKYAKL-OH)", "values": [
      {"measurement": "Hydrolysis t1/2", "setting": "[1]", "value": 1.5, "unit": "h"},
      {"measurement": "half-life in the ligation condition", "setting": "[1]", "value": "less than 2 hours"}
    ]},
    {"compound": "Ac-D(OPac)YAKYAKL (Ac-D(OPac′)YAKYAKL)", "values": [
      {"measurement": "Hydrolysis t1/2", "setting": "[1]", "value": 1.2, "unit": "h"}
    ]},
    {"compound": "Ac-D(diMeOPac)YAKYAKL [OdiMeOPac]", "values": [
      {"measurement": "Hydrolysis t1/2", "setting": "[1]", "value": 3.8, "unit": "h"}
    ]},
    {"compound": "LYRAD(β)CSYUFL [product 6]", "values": [
      {"measurement": "digestion by SV8 protease", "setting": "SV8 protease", "value": "unaffected by the enzyme"}
    ]},
    {"compound": "LYRAE(γ)CSYRFL [product 7]", "values": [
      {"measurement": "digestion by SV8 protease", "setting": "SV8 protease", "value": "unaffected by the enzyme"}
    ]}
  ]
}
